Measurements taken from patent EP0549352B1, “Tricyclic compounds as angiotensin II antagonists” (KYOWA HAKKO KOGYO CO., LTD., priority 1991, dated 1993).

Each compound was assayed against T1, AII receptor (Bos taurus, UniProt P25104) (assay: Receptor binding test using bovine adrenal cortex ([125I]AII binding)). Details: test compound 0.1 µM; receptor binding of [125I]AII (2.5 × 10^-10M); bovine adrenal cortex membranes; room temperature, 2 hours; 0.1 µM.
T1 construct: Tissue of bovine adrenal cortex was finely cut and suspended; from tissue; host or cells: bovine adrenal cortex membrane fraction
T1 sequence (P25104 1-359): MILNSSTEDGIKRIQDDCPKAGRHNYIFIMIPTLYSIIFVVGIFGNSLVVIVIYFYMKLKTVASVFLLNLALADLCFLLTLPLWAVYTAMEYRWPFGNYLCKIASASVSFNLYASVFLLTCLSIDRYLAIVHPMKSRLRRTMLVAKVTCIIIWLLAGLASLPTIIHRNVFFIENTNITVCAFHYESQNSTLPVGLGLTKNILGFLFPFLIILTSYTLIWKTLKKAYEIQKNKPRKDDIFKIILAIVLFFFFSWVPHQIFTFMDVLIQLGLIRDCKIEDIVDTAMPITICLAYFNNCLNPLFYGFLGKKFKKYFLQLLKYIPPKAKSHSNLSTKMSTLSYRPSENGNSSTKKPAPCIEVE
Description: Receptor binding test using bovine adrenal cortex
Tissue of bovine adrenal cortex was finely cut and suspended in a 0.25M sucrose solution containing NaHCO3, ethylenediaminetetraacetic acid (EDTA), leupepsin, pepstatin A and phenylmethanesulfonyl fluoride, followed by homogenization. The homogenate was centrifuged at 3,000 rpm for 10 minutes and the supernatant was centrifuged at 9,000 rpm. Then, the supernatant was further centrifuged at 30,000 rpm for 60 minutes and the precipitate was suspended in NaHCO3-EDTA solution, followed by centrifugation at 30,000 rpm for 60 minutes. The resulting precipitate was suspended in a phosphate buffer and the suspension was used for the binding test as an AII receptor source.
To a test compound or a solvent were added 250 µl of the AII receptor solution prepared above, 250 µl of Tris 50 mM buffer containing 0.2% bovine serum albumin (BSA), and 20 µl of [^125I]AII (2.5 × 10^-10M). The mixture was allowed to stand at room temperature for 2 hours and then filtered through a glass fiber filter (GF/B Wattman). The filter was placed in a test tube and the radioactivity was measured using a gamma-counter.
The inhibitory activity (inhibition rate) of the test compound (0.1 µM) against the receptor binding of [^125I]AII was calculated by the following equation. Inhibition Rate (%) =(1-((Binding Amount in the Presence of a Test Compound)-(Nonspecific Binding Amount))/((Total Binding Amount)-(Nonspecific Binding Amount)))× 100 [formula]
The binding amount in the presence of a test compound is the amount of radioactivity of [^125I]AII bound in the presence of a test compound (0.1 µM).
The total binding amount is the amount of radioactivity of [^125I]AII bound in the absence of a test compound.
The nonspecific binding amount is the amount of radioactivity of [^125I]AII bound in the presence of 1 µM AII.

First: CCc1nc2c(C)cc(C)nc2n1Cc1ccc2c(c1)CCc1ccccc1C2=Cc1nnn[nH]1 (single isomer, unassigned) [Compound 20B, 2-(5,7-Dimethyl-2-ethyl-3H-imidazo[4,5-b]pyridin-3-yl)methyl-5-(1H-tetrazol-5-yl)methylene-5H-10,11-dihydrodibenzo[a,d]cycloheptene]
Second: CCc1nc2c(C)cc(C)nc2n1Cc1ccc2c(c1)OCc1ccccc1C2=Cc1nnn[nH]1 [Compound 6-E, 3-(5,7-Dimethyl-2-ethyl-3H-imidazo[4,5-b]pyridin-3-yl)methyl-11-(1H-tetrazol-5-yl)methylene-6,11-dihydrodibenz[b,e]oxepine]
The “Inhibition Rate (%)” value of the first is higher: 88% for the first, 87% for the second.

Same assay, conditions: test compound 0.1 µM; receptor binding of [125I]AII (2.5 × 10^-10M); bovine adrenal cortex membranes; room temperature, 2 hours; listed as 6-Z*, 0.1 µM

In the case of `CCc1nc2c(C)cc(C)nc2n1Cc1ccc2c(c1)OCc1ccccc1C2=Cc1nnn[nH]1` [Compound 6-Z, 3-(5,7-Dimethyl-2-ethyl-3H-imidazo[4,5-b]pyridin-3-yl)methyl-11-(1H-tetrazol-5-yl)methylene-6,11-dihydrodibenz[b,e]oxepine], the “Inhibition Rate (%)” value is reported as 66%.

Same assay, conditions: test compound 0.1 µM; receptor binding of [125I]AII (2.5 × 10^-10M); bovine adrenal cortex membranes; room temperature, 2 hours; read-out: Inhibition Rate (%)

First: CCc1nc2c(C)cc(C)nc2n1Cc1ccc2c(c1)CCc1ccccc1C2=Cc1nnn[nH]1 (single isomer, unassigned) [Compound 20A, 2-(5,7-Dimethyl-2-ethyl-3H-imidazo[4,5-b]pyridin-3-yl)methyl-5-(1H-tetrazol-5-yl)methylene-5H-10,11-dihydrodibenzo[a,d]cycloheptene]
Second: CCc1nc2c(C)cc(C)nc2n1Cc1ccc2c(c1)COc1ccccc1C2=Cc1nnn[nH]1 [Compound 18-Z, 8-(5,7-Dimethyl-2-ethyl-3H-imidazo[4,5-b]pyridin-3-yl)methyl-11-(1H-tetrazol-5-yl)methylene-6,11-dihydrodibenz[b,e]oxepine]
The inhibition at 0.1 µM of the first is lower: 70% for the first, 81% for the second.

Going from `CCCc1nc2c(C)cccc2n1Cc1ccc2c(c1)OCc1ccccc1C2=CC(=O)O` [Compound 1, [3-(4-Methyl-2-propylbenzimidazol-1-yl)methyl-6,11-dihydrodibenz[b,e]oxepin-11-yliden]acetic acid] to `CCc1nc2c(C)cc(C)nc2n1Cc1ccc2c(c1)OCc1ccccc1C2=CC(=O)O` [Compound 3, [3-(5,7-Dimethyl-2-ethyl-3H-imidazo[4,5-b]pyridin-3-yl)methyl-6,11-dihydrodibenz[b,e]oxepin-11-yliden]acetic acid], the inhibition at 0.1 µM rises from 43% to 78%.

First: CCc1nc2c(C)cc(C)nc2n1Cc1ccc2c(c1)C=Cc1ccc(F)cc1C2=CC(=O)O [Compound 4, [2-(5,7-Dimethyl-2-ethyl-3H-imidazo[4,5-b]pyridin-3-yl)methyl-7-fluoro-5H-dibenzo[a,d]cyclohepten-5-yliden]acetic acid]
Second: CCc1nc2c(C)cc(C)nc2n1Cc1ccc2c(c1)C=Cc1sccc1C2=CC(=O)O [Compound 12, [7-(5,7-Dimethyl-2-ethyl-3H-imidazo[4,5-b]pyridin-3-yl)methyl-4H-benzo[4,5]cyclohepte[1,2-b]thiophen-4-yliden]acetic acid]
The inhibition at 0.1 µM of the first is higher: 77% for the first, 72% for the second.

Compared with `CCc1nc2c(C)cc(C)nc2n1Cc1ccc2c(c1)OCc1ccc(Br)cc1C2=CC(=O)O` [Compound 7, [9-Bromo-3-(5,7-dimethyl-2-ethyl-3H-imidazo[4,5-b]pyridin-3-yl)methyl-6,11-dihydrodibenz[b,e]oxepin-11-yliden]acetic acid], `CCc1nc2c(C)cc(C)nc2n1Cc1ccc2c(c1)OCc1ccsc1C2=CC(=O)O` [Compound 11, [7-(5,7-Dimethyl-2-ethyl-3H-imidazo[4,5-b]pyridin-3-yl)methyl-4,10-dihydrothieno[3,2-c][1]benzoxepin-10-yliden]acetic acid] is higher in inhibition at 0.1 µM: 52% for the first, 84% for the second.

Compared with `CCc1nc2c(C)cc(C)nc2n1Cc1ccc2c(c1)CCc1ccccc1C2=CC(=O)O` [Compound 16, [2-(5,7-Dimethyl-2-ethyl-3H-imidazo[4,5-b]pyridin-3-yl)methyl-5H-10,11-dihydrodibenzo[a,d]cyclohepten-5-yliden]acetic acid], `CCc1nc2c(C)cc(C)nc2n1Cc1ccc2c(c1)CCc1ccccc1N2CC(=O)O` [Compound 33, 5-Carboxymethyl-2-(5,7-dimethyl-2-ethyl-3H-imidazo[4,5-b]pyridin-3-yl)methyl-5H-10,11-dihydrodibenz[b,f]azepine] is lower in inhibition at 0.1 µM: 91% for the first, 88% for the second.

Going from `CCc1nc2c(C)cc(C)nc2n1Cc1ccc2c(c1)C=Cc1c(Br)cccc1C2=Cc1nnn[nH]1` [Compound 19, 1-Bromo-8-(5,7-dimethyl-2-ethyl-3H-imidazo[4,5-b]pyridin-3-yl)methyl-5-(1H-tetrazol-5-yl)methylene-5H-dibenzo[a,d]cycloheptene] to `CCc1nc2c(C)cc(C)nc2n1Cc1ccc2c(c1)SCc1ccccc1C2=Cc1nnn[nH]1` [Compound 22-E, 3-(5,7-Dimethyl-2-ethyl-3H-imidazo[4,5-b]pyridin-3-yl)methyl-11-(1H-tetrazol-5-yl)methylene-6,11-dihydrodibenzo[b,e]thiepine], the inhibition at 0.1 µM rises from 14% to 80%.

Going from `CCc1nc2c(C)cc(C)nc2n1Cc1ccc2c(c1)OCc1ccccc1C2CC(=O)O` (centres unmarked) [Compound 23, [3-(5,7-Dimethyl-2-ethyl-3H-imidazo[4,5-b]pyridin-3-yl)methyl-6,11-dihydrodibenz[b,e]oxepin-11-yl]acetic acid] to `CCc1nc2c(C)cc(C)nc2n1Cc1ccc2c(c1)OCc1ccccc1C2Cc1nnn[nH]1` (centres unmarked) [Compound 25, 3-(5,7-Dimethyl-2-ethyl-3H-imidazo[4,5-b]pyridin-3-yl)methyl-11-(1H-tetrazol-5-yl)methyl-6,11-dihydrodibenz[b,e]oxepine], the inhibition at 0.1 µM rises from 61% to 94%.

Going from `CCc1nc2c(C)cc(C)nc2n1Cc1ccc2c(c1)CCc1ccccc1C2Cc1nnn[nH]1` (centres unmarked) [Compound 28, 2-(5,7-Dimethyl-2-ethyl-3H-imidazo[4,5-b]pyridin-3-yl)methyl-5-(1H-tetrazol-5-yl)methyl-5H-10,11-dihydrodibenzo[a,d]cycloheptene] to `Cc1cc(C)c2nc(C3CC3)n(Cc3ccc4c(c3)CCc3ccccc3C4Cc3nnn[nH]3)c2n1` (centres unmarked) [Compound 29, 2-(5,7-Dimethyl-2-cyclopropyl-3H-imidazo[4,5-b]pyridin-3-yl)methyl-5-(1H-tetrazol-5-yl)methyl-5H-10,11-dihydrodibenzo[a,d]cycloheptene], the inhibition at 0.1 µM rises from 83% to 92%.

Compared with `Cc1cc(C)c2nc(C3CC3)n(Cc3ccc4c(c3)CCc3ccccc3N4Cc3nnn[nH]3)c2n1` [Compound 34, 2-(5,7-Dimethyl-2-cyclopropyl-3H-imidazo[4,5-b]pyridin-3-yl)methyl-5-(1H-tetrazol-5-yl)methyl-5H-10,11-dihydrodibenz[b,f]azepine], `CCc1nc2c(C)cc(C)nc2n1Cc1ccc2c(c1)CCc1ccccc1N2Cc1ccccc1C(=O)O` [Compound 38, 2-[[2-(5,7-Dimethyl-2-ethyl-3H-imidazo[4,5-b]pyridin-3-yl)methyl-5H-10,11-dihydrodibenz[b,f]azepin-5-yl]methyl]benzoic acid] is lower in inhibition at 0.1 µM: 97% for the first, 68% for the second.

Going from `CCCCC(=O)N(Cc1ccc2c(c1)CCc1ccccc1N2Cc1nnn[nH]1)C(C(=O)O)C(C)C` (centres unmarked) [Compound 40, N-[[5-(1H-Tetrazol-5-yl)methyl-5H-10,11-dihydrodibenz[b,f]azepin-2-yl]methyl]-N-valerylvaline] to `CCc1nc2c(C)cc(C)nc2n1Cc1ccc2c(c1)c1ccccc1n2CCc1nnn[nH]1` [Compound 42, 3-(5,7-Dimethyl-2-ethyl-3H-imidazo[4,5-b]pyridin-3-yl)methyl-9-[2-(1H-tetrazol-5-yl)ethyl]carbazole], the inhibition at 0.1 µM falls from 95% to 85%.
